The text below walks through data of ChEMBL document CHEMBL1157384, “Apratoxin D, a potent cytotoxic cyclodepsipeptide from papua new guinea collections of the marine cyanobacteria Lyngbya majuscula and Lyngbya sordida” (J Nat Prod, 2008).

The test system of the test is NCI-H460. Nature of the test: Cytotoxicity against human H460 cells after 48 hrs by MTT assay. It is filed as functional, cell-based. The settings on record: NCI-H460, 48 h. (In general: Tetrazolium dyes change colour on reduction, which living cells bring about.)

Molecules are shown by their SMILES.

A word on the IC50: it is the concentration at which inhibition is half-maximal. Lower therefore signals greater potency.

`CC[C@H](C)[C@H]1C(=O)N2CCC[C@H]2C(=O)O[C@H]([C@@H](C)CC(C)(C)C)C[C@@H](C)C[C@H](O)[C@H](C)C2=N[C@@H](/C=C(\C)C(=O)N[C@@H](Cc3ccc(OC)cc3)C(=O)N(C)[C@@H](C)C(=O)N1C)CS2` [APRATOXIN D] returned an IC50 of 2.6 nM.
